Assay results reported in ChEMBL document CHEMBL5104166, “Lead optimization of cathepsin K inhibitors for the treatment of Osteoarthritis” (Bioorg Med Chem Lett, 2022).

Tests used:
Cathepsin K [1] = target: T1, Cathepsin K (Homo sapiens, UniProt P43235); assay: Inhibition of human Cathepsin K
T1 sequence (P43235 whole entry): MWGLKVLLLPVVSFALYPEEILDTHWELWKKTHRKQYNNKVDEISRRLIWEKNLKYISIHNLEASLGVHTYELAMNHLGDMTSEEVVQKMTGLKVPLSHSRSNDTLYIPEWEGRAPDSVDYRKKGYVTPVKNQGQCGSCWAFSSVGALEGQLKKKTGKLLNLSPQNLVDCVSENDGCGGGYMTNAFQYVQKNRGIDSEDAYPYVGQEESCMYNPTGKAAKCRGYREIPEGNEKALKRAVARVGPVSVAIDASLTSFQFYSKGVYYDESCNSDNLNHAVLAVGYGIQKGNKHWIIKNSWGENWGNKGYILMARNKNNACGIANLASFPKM

Homo sapiens = species on record: Homo sapiens; assay: Selectivity ratio of IC50 for Cathepsin F (unknown origin) to IC50 for Cathepsin K (unknown origin)
[2] = Intrinsic clearance in rat liver microsomes; type: ADME, Microsome; details: read-out: CLH
Cathepsin K [3] = target: Cathepsin K (Homo sapiens, UniProt P43235); assay: Inhibition of humanized-rabbit Cathepsin K
[4] = target: Cathepsin (L and K) (Homo sapiens) (UniProt P43235+P07711); assay: Selectivity ratio of IC50 for Cathepsin L (unknown origin) to IC50 for Cathepsin K (unknown origin); type: protein assay
[5] = target: Cathepsin (B and K) (Homo sapiens) (UniProt P43235+P07858); assay: Selectivity ratio of IC50 for Cathepsin B (unknown origin) to IC50 for Cathepsin K (unknown origin); type: protein assay
[6] = Drug concentration in dog cartilage at 15 mg/kg, po for 4 days; type: ADME, organism-based, Canis lupus familiaris, Cartilage tissue; details: time 4 day, read-out: Ct
[7] = Unbound drug concentration in dog cartilage at 15 mg/kg, po for 4 days; type: ADME, organism-based, Canis lupus familiaris, Cartilage tissue; details: in vivo, 96 h, time 4 day
[8] = Half life in dog; type: ADME, Canis lupus familiaris; details: in vivo
[9] = Oral bioavailability in rat; type: ADME, organism-based; details: in vivo
[10] = Oral bioavailability in dog; type: ADME, organism-based, Canis lupus familiaris; details: in vivo
[11] = Clearance in rat; type: ADME; details: in vivo
Canis familiaris [12] = assay: Anti-osteoarthritic activity in dog assessed as reduction in uCTX-1 level at 0.3 mg/kg, po for 4 days (reference value: 26.9%); type: functional; details: Canis lupus familiaris, 96 h, time 4 day
[13] = target: Cathepsin (V and K) (Homo sapiens) (UniProt P43235+O60911); assay: Selectivity ratio of IC50 for Cathepsin V (unknown origin) to IC50 for Cathepsin K (unknown origin); type: protein assay
[14] = Clearance in dog; type: ADME, Canis lupus familiaris; details: in vivo
[15] = Unbound plasma concentration in dog at 15 mg/kg, po for 4 days; type: ADME, organism-based, Canis lupus familiaris; details: in vivo, 96 h, time 4 day
Canis familiaris [16] = assay: Anti-osteoarthritic activity in dog assessed as reduction in uCTX-1 level at 0.03 mg/kg, po for 4 days (reference value: 26.9%); type: functional; details: Canis lupus familiaris, 96 h, time 4 day
[17] = target: Cathepsin (S and K) (Homo sapiens) (UniProt P25774+P43235); assay: Selectivity ratio of IC50 for Cathepsin S (unknown origin) to IC50 for Cathepsin K (unknown origin); type: protein assay
[18] = Oral bioavailability in rhesus monkey; type: ADME, organism-based, Macaca mulatta; details: in vivo
[19] = Clearance in rhesus monkey; type: ADME, Macaca mulatta; details: in vivo
[20] = Plasma concentration in dog at 15 mg/kg, po for 4 days; type: ADME, organism-based, Canis lupus familiaris; details: time 4 day
Canis familiaris [21] = assay: Anti-osteoarthritic activity in dog assessed as reduction in uCTX-1 level at 0.1 mg/kg, po for 4 days (reference value: 26.9%); type: functional; details: Canis lupus familiaris, 96 h, time 4 day
Canis familiaris [22] = assay: Anti-osteoarthritic activity in dog assessed as reduction in uCTX-1 level at 15 mg/kg, po for 4 days (reference value: 26.9%); type: functional; details: Canis lupus familiaris, 96 h, time 4 day
[23] = Half life in rhesus monkey; type: ADME, Macaca mulatta; details: in vivo
[24] = Plasma protein binding in dog assessed as unbound fraction at 15 mg/kg, po for 4 days; type: ADME, organism-based, Canis lupus familiaris; details: time 4 day
[25] = Half life in rat; type: ADME; details: in vivo

Cathepsin (V and K) (Homo sapiens), sequence (O60911 whole entry, looked up, one chain of several): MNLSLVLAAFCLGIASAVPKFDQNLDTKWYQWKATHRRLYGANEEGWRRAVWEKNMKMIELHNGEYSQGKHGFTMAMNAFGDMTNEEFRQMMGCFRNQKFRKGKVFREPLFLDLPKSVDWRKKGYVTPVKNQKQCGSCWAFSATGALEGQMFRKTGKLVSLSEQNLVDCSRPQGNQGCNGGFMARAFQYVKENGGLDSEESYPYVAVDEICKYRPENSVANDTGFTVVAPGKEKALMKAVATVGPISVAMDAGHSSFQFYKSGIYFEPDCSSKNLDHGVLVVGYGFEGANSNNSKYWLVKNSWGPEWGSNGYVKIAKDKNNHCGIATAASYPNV
Cathepsin (L and K) (Homo sapiens), sequence (P07711 whole entry, looked up, one chain of several): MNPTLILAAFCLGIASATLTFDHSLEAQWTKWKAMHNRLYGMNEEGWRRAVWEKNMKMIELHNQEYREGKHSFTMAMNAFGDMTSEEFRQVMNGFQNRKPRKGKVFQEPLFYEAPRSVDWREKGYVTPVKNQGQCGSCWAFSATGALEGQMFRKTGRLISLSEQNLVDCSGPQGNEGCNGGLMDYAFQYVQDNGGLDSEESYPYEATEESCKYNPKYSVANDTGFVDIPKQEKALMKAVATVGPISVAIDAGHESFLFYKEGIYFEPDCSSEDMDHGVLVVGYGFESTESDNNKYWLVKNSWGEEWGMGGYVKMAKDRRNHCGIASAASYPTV
Cathepsin (S and K) (Homo sapiens), sequence (P25774 whole entry, looked up, one chain of several): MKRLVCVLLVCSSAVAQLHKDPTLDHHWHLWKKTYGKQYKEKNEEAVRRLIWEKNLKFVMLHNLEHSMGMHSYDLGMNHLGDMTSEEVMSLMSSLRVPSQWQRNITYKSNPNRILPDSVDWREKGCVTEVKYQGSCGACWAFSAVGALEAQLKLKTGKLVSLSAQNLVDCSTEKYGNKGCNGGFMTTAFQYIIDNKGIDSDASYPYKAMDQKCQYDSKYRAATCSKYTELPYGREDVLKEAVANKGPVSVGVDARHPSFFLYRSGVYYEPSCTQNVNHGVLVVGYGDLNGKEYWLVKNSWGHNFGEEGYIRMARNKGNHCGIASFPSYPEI

N#CC1(NC(=O)[C@@H]2CCCC[C@H]2c2nn(CC(F)(F)F)cc2-c2ccc(N3CCS(=O)(=O)CC3)cc2)CC1 gave an IC50 (Cathepsin K [1]) of 6.9 nM and a Ratio IC50 (Homo sapiens) of 1280.
In the case of N#CC1(NC(=O)[C@@H]2CCCC[C@H]2c2nc(-c3ccc(F)cc3)sc2-c2ccc(N3CCS(=O)(=O)CC3)cc2)CC1, the IC50 (Cathepsin K [1]) is reported as 0.6 nM, the CLint scaled [2] is reported as 55.9 mL/min/kg and the Ratio IC50 (Homo sapiens) is reported as 1430.
Compound N#CC1(NC(=O)[C@@H]2CC(F)(F)CC[C@H]2c2nn(-c3ccc(F)cc3)cc2-c2ccc(N3CCS(=O)(=O)CC3)cc2)CC1 has an IC50 (Cathepsin K [3]) of 0.5 nM, a CLint scaled [2] of under 30 mL/min/kg and a Ratio IC50 (Homo sapiens) of 50.
With CS(=O)(=O)N1CC(c2ccc(-c3cn(CC(F)(F)F)nc3[C@@H]3CCC(F)(F)C[C@H]3C(=O)NC3(C#N)CC3)cc2)C1 the IC50 (Cathepsin K [3]) was 0.6 nM and the Ratio IC50 (Homo sapiens) was 82.
With N#CC1(NC(=O)[C@@H]2CCCC[C@H]2c2oc(-c3ccc(F)cc3)nc2-c2ccc(N3CCS(=O)(=O)CC3)cc2)CC1 the Ratio IC50 [4] was over 20000, the Ratio IC50 [5] was over 20000 and the concentration at 96 h [6] was 220 nM. For the same compound, the IC50 (Cathepsin K [1]) was 0.5 nM, the “Drug uptake(free)” value [7] was 0.21 µM and the half-life [8] was 4.1 h. It also gave a CLint scaled [2] of under 30 mL/min/kg, a bioavailability [9] of 33% and a bioavailability [10] of 38%. It also gave a Ratio IC50 (Homo sapiens) of 1460, a clearance [11] of 13 mL/min/kg and an inhibition in vivo at 0.3 mg/kg (Canis familiaris [12]) of 81.1%. For the same compound, the Ratio IC50 [13] was over 20000, the clearance [14] was 3.1 mL/min/kg and the “Cp(f)” value [15] was 190 nM. The inhibition in vivo at 0.03 mg/kg (Canis familiaris [16]) was 4.5%, the Ratio IC50 [17] was over 20000 and the bioavailability [18] was 55%. For the same compound, the clearance [19] was 18.5 mL/min/kg, the concentration at 96 h [20] was 3980 nM and the inhibition in vivo at 0.1 mg/kg (Canis familiaris [21]) was 47.7%. It also gave an inhibition in vivo at 15 mg/kg (Canis familiaris [22]) of 91.4%, a half-life [23] of 2.3 h and a fraction unbound at 96 h [24] of 0.047. It also gave a half-life [25] of 1.5 h.
Work on N#CC1(NC(=O)[C@@H]2CCCC[C@H]2c2nn(-c3ccc(F)cc3)cc2-c2ccc(N3CCS(=O)(=O)CC3)cc2)CC1 yielded an IC50 (Cathepsin K [1]) of 0.5 nM, a CLint scaled [2] of 40.5 mL/min/kg and a Ratio IC50 (Homo sapiens) of 1000.
For N#CC1(NC(=O)[C@@H]2CC(Cl)(Cl)CC[C@H]2c2nn(CC(F)(F)F)cc2-c2ccc(C(=O)N3CCOCC3)cc2)CC1, the IC50 (Cathepsin K [3]) was 1 nM and the Ratio IC50 (Homo sapiens) was 246.
N#CC1(NC(=O)[C@@H]2CC(F)(F)CC[C@H]2c2nn(CC(F)(F)F)cc2-c2ccc(N3CCS(=O)(=O)CC3)cc2)CC1 showed an IC50 (Cathepsin K [1]) of 0.7 nM and a Ratio IC50 (Homo sapiens) of 380.
With N#CC1(NC(=O)[C@@H]2CC(Cl)(Cl)CC[C@H]2c2nn(CC(F)(F)F)cc2-c2ccc(N3CCS(=O)(=O)CC3)cc2)CC1 the IC50 (Cathepsin K [3]) was 0.5 nM and the Ratio IC50 (Homo sapiens) was 314.
Compound CS(=O)(=O)c1ccc(-c2cn(CC(F)(F)F)nc2[C@@H]2CCC(Cl)(Cl)C[C@H]2C(=O)NC2(C#N)CC2)cc1 has a Ratio IC50 [4] of 1710, a Ratio IC50 [5] of 5560 and an IC50 (Cathepsin K [1]) of 1.8 nM. The Ratio IC50 (Homo sapiens) was 40, the Ratio IC50 [13] was 714 and the Ratio IC50 [17] was 1360.
Compound N#CC1(NC(=O)[C@@H]2CCCC[C@H]2c2nn(CC3CC3)cc2-c2ccc(N3CCS(=O)(=O)CC3)cc2)CC1 has an IC50 (Cathepsin K [1]) of 5.3 nM and a Ratio IC50 (Homo sapiens) of 1180.
Work on N#CC1(NC(=O)[C@@H]2CC(F)(F)CC[C@H]2c2nn(CC(F)(F)F)cc2-c2ccc(-c3ncco3)cc2)CC1 yielded an IC50 (Cathepsin K [3]) of 1 nM and a Ratio IC50 (Homo sapiens) of 62.
Work on COc1cccc(-n2cc(-c3ccc(N4CCS(=O)(=O)CC4)cc3)c([C@@H]3CCCC[C@H]3C(=O)NC3(C#N)CC3)n2)c1 yielded an IC50 (Cathepsin K [1]) of 0.7 nM, a CLint scaled [2] of 244 mL/min/kg and a Ratio IC50 (Homo sapiens) of 716.
